What all share (test): B1 Post-emergence efficacy, glasshouse pot test
What all share (format): in vivo
Details in all cases: post-emergence application, 1000 g/ha, evaluated after 13 days

The subject of test [1] is Ipomoea hederacea (IPOHE). The method, then: (§1) B1 Post-Emergence Efficacy Seeds of a variety of test species are sown in standard soil in pots:—Solanum nigrum (SOLNI), Amaranthus retoflexus (AMARE), Setaria faberi (SETFA), Alopecurus myosuroides (ALOMY), Echinochloa crus-galli (ECHCG), Ipomoea hederacea (IPOHE), Lolium perenne (LOLPE). After 8 days cultivation (post-emergence) under controlled conditions in a glasshouse (at 24/16° C., day/night; 14 hours light; 65% humidity), the plants are sprayed with an aqueous spray solution derived from the formulation of the technical active ingredient in acetone/water (50:50) solution containing 0.5% Tween 20 (polyoxyethelyene sorbitan monolaurate, CAS RN 9005-64-5). Compounds are applied at 1000 g/ha. The test plants are then grown in a glasshouse under controlled conditions in a glasshouse (at 24/16° C., day/night; 14 hours light; 65% humidity) and watered twice daily. After 13 days, the test is evaluated for the percentage damage caused to the plant. The biological activities are assessed on a five point scale (5=80-100%; 4=60-79%; 3=40-59%; 2=20-39%; 1=0-19%). A blank value in the table is indicative that the compound was not tested on that species.

Test [2] has as its system Alopecurus myosuroides (ALOMY). The method, then:
as §1

Test [3] relates to Echinochloa crus-galli (ECHCG). The method, then:
as §1

Another test deals with Solanum nigrum (SOLNI). As to the method: as §1
In test [4] the test system is Amaranthus retoflexus (AMARE). As to the method:
as §1

Another test concerns Setaria faberi (SETFA). As to the method:
as §1

The next test deals with Lolium perenne (LOLPE). As to the method: as §1

We go through six compounds from patent US9944608B2, “Herbicidal pyridazinone derivatives” (Syngenta Participations AG, priority 2014, dated 2018).

Turning to `CC1=NN(C)C(=O)C(c2c(Cl)ccc(Cl)c2OCc2ccccc2)C1=O` (stereo not drawn) [Compound 1.001, 4-(2-benzyloxy-3,6-dichloro-phenyl)-2,6-dimethyl-pyridazine-3,5-dione], the “IPOHE: percentage damage caused to the plant (five point scale)” value (“IPOHE: percentage damage caused” below) in test [1] was 5 (5=80-100%). In addition, the “ALOMY: percentage damage caused to the plant (five point scale)” value in test [2] is on record as 4 (4=60-79%). Also, the “ECHCG: percentage damage caused to the plant (five point scale)” value (“ECHCG: percentage damage caused” below) in test [3] is reported as 5 (5=80-100%). The “SOLNI: percentage damage caused to the plant (five point scale)” value (“SOLNI: percentage damage caused” below) with Solanum nigrum (SOLNI) is listed as 5 (5=80-100%). In addition, the “AMARE: percentage damage caused to the plant (five point scale)” value (“AMARE: percentage damage caused” below) in test [4] is listed as 5 (5=80-100%). The “SETFA: percentage damage caused to the plant (five point scale)” value (“SETFA: percentage damage caused” below) in the test with Setaria faberi (SETFA) is 5 (5=80-100%).
Consider `Cc1ccc(Cl)c(OCc2ccccc2)c1-c1c(O)c(C)nn(C)c1=O` [Compound 1.076], for which, in test [1], the “IPOHE: percentage damage caused” value is listed as 5 (5=80-100%). For the same compound, the “LOLPE: percentage damage caused to the plant (five point scale)” value (“LOLPE: percentage damage caused” below) with Lolium perenne (LOLPE) is on record as 4 (4=60-79%). Further, the “ECHCG: percentage damage caused” value in test [3] is given as 5 (5=80-100%). The “SOLNI: percentage damage caused” value with Solanum nigrum (SOLNI) was 5 (5=80-100%). The “AMARE: percentage damage caused” value in test [4] is listed as 2 (2=20-39%). Also, in the test with Setaria faberi (SETFA), the “SETFA: percentage damage caused” value was 5 (5=80-100%).
With `Cc1nn(C)c(=O)c(-c2c(Cl)cc(Cl)cc2OCc2ccccc2)c1O` [Compound 1.006], the “IPOHE: percentage damage caused” value in test [1] is reported as 5 (5=80-100%). The “LOLPE: percentage damage caused” value in the test on Lolium perenne (LOLPE) is 2 (2=20-39%). The “ECHCG: percentage damage caused” value in test [3] is 3 (3=40-59%). Also, in the test with Solanum nigrum (SOLNI), the “SOLNI: percentage damage caused” value was 5 (5=80-100%). For the same compound, the “AMARE: percentage damage caused” value in test [4] is listed as 5 (5=80-100%). The “SETFA: percentage damage caused” value in the test with Setaria faberi (SETFA) was 3 (3=40-59%).
Regarding `CCn1nc(C)c(O)c(-c2c(F)ccc(Cl)c2OCc2ccccc2)c1=O` [Compound 1.037], the “IPOHE: percentage damage caused” value in test [1] is given as 5 (5=80-100%). Also, the “LOLPE: percentage damage caused” value in the test on Lolium perenne (LOLPE) is listed as 5 (5=80-100%). Further, in test [3], the “ECHCG: percentage damage caused” value was 5 (5=80-100%). The “SOLNI: percentage damage caused” value in the test on Solanum nigrum (SOLNI) is 5 (5=80-100%). Moreover, the “AMARE: percentage damage caused” value in test [4] was 5 (5=80-100%). Moreover, the “SETFA: percentage damage caused” value in the test with Setaria faberi (SETFA) is 4 (4=60-79%).
Turning to `Cc1nn(C)c(=O)c(-c2ccccc2OCc2ccccc2)c1O` [Compound 1.002], the “IPOHE: percentage damage caused” value in test [1] is listed as 1 (1=0-19%). In the test with Lolium perenne (LOLPE), the “LOLPE: percentage damage caused” value is reported as 1 (1=0-19%). Moreover, in test [3], the “ECHCG: percentage damage caused” value was 1 (1=0-19%). Also, in the test with Solanum nigrum (SOLNI), the “SOLNI: percentage damage caused” value was 5 (5=80-100%). Moreover, the “AMARE: percentage damage caused” value in test [4] is listed as 4 (4=60-79%). Also, in the test with Setaria faberi (SETFA), the “SETFA: percentage damage caused” value was 1 (1=0-19%).
`Cn1nc(C(F)(F)F)c(O)c(-c2c(Cl)ccc(Cl)c2OCc2ccccc2)c1=O` [Compound 1.075]: the “IPOHE: percentage damage caused” value in test [1] is on record as 5 (5=80-100%). Further, the “LOLPE: percentage damage caused” value in the test with Lolium perenne (LOLPE) is on record as 4 (4=60-79%). Further, in test [3], the “ECHCG: percentage damage caused” value is given as 5 (5=80-100%). Further, the “SOLNI: percentage damage caused” value in the test on Solanum nigrum (SOLNI) is recorded as 5 (5=80-100%). Also, the “AMARE: percentage damage caused” value in test [4] was 4 (4=60-79%). Besides, the “SETFA: percentage damage caused” value in the test with Setaria faberi (SETFA) was 5 (5=80-100%).
